This is an account of results in patent publication US9096598B2 (Merck Sharp & Dohme Corp., priority 2011, dated 2015).

As usually defined, the IC50 is the concentration at which inhibition is half-maximal.

The target in assay [1] is T1, JAK3 (Homo sapiens, UniProt P52333).
T1 construct: recombinant purified GST-tagged catalytic domain for each enzyme; purchased Invitrogen M4290
The experiment in a line: Jak Biochemical HTRF Assay (JAK3). The settings on record: recombinant purified GST-tagged catalytic domain, [ATP] 2.9 μM, values given as range classes. In outline: (§1)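 GST-tagged recombinant catalytic domain and biotinylated peptide substrate were preincubated with compound for 30 min at room temperature in kinase buffer with 2 mM DTT and 0.05% BSA. ATP then started a 120 min reaction. Phosphopeptide was detected by HTRF (Eu-pY20/streptavidin-Dylight 650, 665/615 nm ratio), and IC50 came from a 4-parameter fit of percent inhibition.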
Background: In TR-FRET formats the signal depends on donor and acceptor labels being close together.

The target in assay [2] is T2, JAK2 (Homo sapiens, UniProt O60674).
T2 construct: recombinant purified GST-tagged catalytic domain for each enzyme; purchased Invitrogen M4290
T2 sequence (O60674 849-1124 limits assumed): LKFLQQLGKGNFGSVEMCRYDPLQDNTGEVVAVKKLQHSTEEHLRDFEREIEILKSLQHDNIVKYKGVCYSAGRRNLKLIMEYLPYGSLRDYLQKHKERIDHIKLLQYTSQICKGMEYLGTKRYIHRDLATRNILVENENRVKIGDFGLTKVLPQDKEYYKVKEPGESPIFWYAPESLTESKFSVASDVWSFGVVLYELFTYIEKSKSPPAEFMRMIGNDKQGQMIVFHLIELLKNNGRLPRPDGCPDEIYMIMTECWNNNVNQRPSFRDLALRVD
The experiment in a line: Jak Biochemical HTRF Assay (JAK2). The conditions noted are these: recombinant purified GST-tagged catalytic domain, [ATP] 8.5 μM, values given as range classes. In outline: as §1

T1 sequence (P52333 822-1111 limits assumed): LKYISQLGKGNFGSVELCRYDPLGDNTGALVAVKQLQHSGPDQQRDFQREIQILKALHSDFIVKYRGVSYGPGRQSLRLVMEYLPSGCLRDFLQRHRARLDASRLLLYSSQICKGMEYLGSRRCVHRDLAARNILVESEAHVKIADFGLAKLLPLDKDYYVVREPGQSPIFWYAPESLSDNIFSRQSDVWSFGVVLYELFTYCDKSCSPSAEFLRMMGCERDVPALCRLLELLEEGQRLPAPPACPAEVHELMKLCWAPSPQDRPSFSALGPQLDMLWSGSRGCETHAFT

On to `C[C@@H](Nc1cncc(-c2c[nH]c3ncc(Cl)c(F)c23)c1)C(=O)NCC(F)(F)F` [Example 1-36, N~2~-[5-(5-chloro-4-fluoro-1H-pyrrolo[2,3-b]pyridin-3-yl)pyridin-3-yl]-N-(2,2,2-trifluoroethyl)-D-alaninamide], for which the IC50 in assay [1] is 10 to 500 nM; in assay [2] it was above 500 nM.
In the same order, the values of `CC(C)[C@H](Nc1cncc(-c2c[nH]c3ncc(OCC4CC4)cc23)c1)C(=O)NCC(F)(F)F` [Example 2-6, N~2~-{5-[5-(cyclopropylmethoxy)-1H-pyrrolo[2,3-b]pyridin-3-yl]pyridin-3-yl}-N-(2,2,2-trifluoroethyl)valinamide] are at most 10 nM and 10 to 500 nM.
In the same order, the values of `CC(C)(Nc1cncc(-c2c[nH]c3ncc(Cl)cc23)c1)C(=O)NCC(F)(F)F` [Example 1-27, N~2~-[5-(5-chloro-1H-pyrrolo[2,3-b]pyridin-3-yl)pyridin-3-yl]-2-methyl-N-(2,2,2-trifluoroethyl)alaninamide] are at most 10 nM and 10 to 500 nM.
In the same order, the values of `CC(C)C(Nc1cncc(-c2c[nH]c3ncc(O)cc23)c1)C(=O)NCC(F)(F)F` (stereo not shown) [Example 2-1, 2-{[5-(5-hydroxy-1H-pyrrolo[2,3-b]pyridin-3-yl)pyridin-3-yl]amino}-3-methyl-N-(2,2,2-trifluoroethyl)butanamide] are at most 10 nM and 10 to 500 nM.
For the compound `CC(C)[C@@H](Nc1cncc(-c2c[nH]c3ncc(CN4CCCC4)cc23)c1)C(=O)NCC(F)(F)F` [Example 9-7, N~2~-{5-[5-(pyrrolidin-1-ylmethyl)-1H-pyrrolo[2,3-b]pyridin-3-yl]pyridin-3-yl}-N-(2,2,2-trifluoroethyl)-D-valinamide], the IC50 in assay [1] and in assay [2] was 10 to 500 nM each time.
With `CC1c2ncc(C(F)(F)F)n2CCN1c1cnnc(-c2c[nH]c3ncc(F)cc23)n1` (stereo not shown) [Example 1-10, 7-[3-(5-fluoro-1H-pyrrolo[2,3-b]pyridin-3-yl)-1,2,4-triazin-5-yl]-8-methyl-3-(trifluoromethyl)-5,6,7,8-tetrahydroimidazo[1,2-a]pyrazine], the IC50 in assay [1] and in assay [2] was 10 to 500 nM in each case.
For the compound `COCc1cnc2[nH]cc(-c3nncc(N[C@@H](C(=O)NCC(F)(F)F)C(C)C)n3)c2c1` [Example 9-8, N~2~-{3-[5-(methoxymethyl)-1H-pyrrolo[2,3-b]pyridin-3-yl]-1,2,4-triazin-5-yl}-N-(2,2,2-trifluoroethyl)-D-valinamide], the IC50 in assay [1] and in assay [2] was 10 to 500 nM in each case.
With `Clc1cnc2[nH]cc(-c3cncc(N4CCCC4c4nccs4)c3)c2c1` (stereo not shown) [Example 1-28, 5-chloro-3-{5-[2-(1,3-thiazol-2-yl)pyrrolidin-1-yl]pyridin-3-yl}-1H-pyrrolo[2,3-b]pyridine], the IC50 in assay [1] was at most 10 nM; in assay [2] it was 10 to 500 nM.
The like results for `CC(C)C(Nc1cncc(-c2c[nH]c3ncc(CNC(=O)C4CCCCC4)cc23)c1)C(=O)NCC(F)(F)F` (stereo not shown) [Example 10-3, N-({3-[5-({2-methyl-1-[(2,2,2-trifluoroethyl)carbamoyl]prop-yl}amino)pyridin-3-yl]-1H-pyrrolo[2,3-b]pyridin-5-yl}methyl)cyclohexanecar-boxamide] were, in that order, 10 to 500 nM and above 500 nM.
For `CC(C)NC(=O)Nc1cnc2[nH]cc(-c3cncc(N[C@H](C(=O)NCC(F)(F)F)C(C)C)c3)c2c1` [Example 6-1, N^2-(5-{5-[(propan-2-ylcarbamoyl)amino]-1H-pyrrolo[2,3-b]pyridin-3-yl}pyridin-3-yl)-N-(2,2,2-trifluoroethyl)valinamide], the IC50 in assay [1] is at most 10 nM; in assay [2], 10 to 500 nM.
The like results for `CC(C)[C@@H](Nc1cncc(-c2c[nH]c3ncc(C(=O)NCc4ccn[nH]4)cc23)c1)C(=O)NCC(F)(F)F` [Example 3-10, 3-[5-({(1R)-2-methyl-1-[(2,2,2-trifluoroethyl)carbamoyl]propyl}amino)pyridin-3-yl]-N-(1H-pyrazol-5-ylmethyl)-1H-pyrrolo[2,3-b]pyridine-5-carboxamide] were, in that order, at most 10 nM and 10 to 500 nM.
In the same order, the values of `CC(C)[C@H](Nc1cncc(-c2c[nH]c3ncc(OCCc4ccccn4)cc23)c1)C(=O)NCC(F)(F)F` [Example 2-12, N~2~-{5-[5-(2-pyridin-2-ylethoxy)-1H-pyrrolo[2,3-b]pyridin-3-yl]pyridin-3-yl}-N-(2,2,2-trifluoroethyl)valinamide] are at most 10 nM and 10 to 500 nM.
The like results for `CCOC(=O)Nc1cnc2[nH]cc(-c3cncc(NC(C(=O)NCC(F)(F)F)C(C)C)c3)c2c1` (stereo not shown) [Example 7-2, ethyl {3-[5-({2-methyl-1-[(2,2,2-trifluoroethyl)carbamoyl]propyl}amino)pyridin-3-yl]-1H-pyrrolo[2,3-b]pyridin-5-yl}carbamate] were, in that order, 10 to 500 nM and 10 to 500 nM.
Take `COCc1cnc2[nH]cc(-c3cncc(N[C@@H](C(=O)NCC(F)(F)F)C(C)C)c3)c2c1` [Example 9-9, N~2~-{5-[5-(methoxymethyl)-1H-pyrrolo[2,3-b]pyridin-3-yl]pyridin-3-yl}-N-(2,2,2-trifluoroethyl)-D-valinamide]: the results for the IC50 in assay [1] and in assay [2] were at most 10 nM and 10 to 500 nM, respectively.
The like results for `CC(C)C(Nc1cncc(-c2c[nH]c3ncc(S(=O)(=O)N(C)C)cc23)c1)C(=O)NCC(F)(F)F` (stereo not shown) [Example 4-2, 2-(5-(5-(N,N-dimethylsulfamoyl)-1H-pyrrolo[2,3-b]pyridin-3-yl)pyridin-3-ylamino)-3-methyl-N-(2,2,2-trifluoroethyl)butanamide] were, in that order, 10 to 500 nM and above 500 nM.
In the same order, the values of `CC(C)(Nc1cncc(-c2c[nH]c3ncc(F)cc23)c1)C(=O)NCC(F)(F)F` [Example 1-43, N~2~-[5-(5-fluoro-1H-pyrrolo[2,3-b]pyridin-3-yl)pyridin-3-yl]-2-methyl-N-(2,2,2-trifluoroethyl)alaninamide] are at most 10 nM and 10 to 500 nM.
In the same order, the values of `CC(C)[C@H](Nc1cncc(-c2c[nH]c3ncc(OCCCN(C)C)cc23)c1)C(=O)NCC(F)(F)F` [Example 2-14, N~2~-(5-{5-[3-(dimethylamino)propoxy]-1H-pyrrolo[2,3-b]pyridin-3-yl}pyridin-3-yl)-N-(2,2,2-trifluoroethyl)valinamide] are at most 10 nM and 10 to 500 nM.
With `C=CCOCc1cnc2[nH]cc(-c3cncc(N[C@@H](C(=O)NCC(F)(F)F)C(C)C)c3)c2c1` [Example 9-5, N~2~-(5-{5-[(prop-2-en-1-yloxy)methyl]-1H-pyrrolo[2,3-b]pyridin-3-yl}pyridin-3-yl)-N-(2,2,2-trifluoroethyl)-D-valinamide], the IC50 in assay [1] was at most 10 nM; in assay [2], 10 to 500 nM.
The like results for `CC(C)Oc1cnc2[nH]cc(-c3cncc(N[C@@H](C(=O)NCC(F)(F)F)C(C)C)c3)c2c1` [Example 2-3, N~2~-{5-[5-(1-methylethoxy)-1H-pyrrolo[2,3-b]pyridin-3-yl]pyridin-3-yl}-N-(2,2,2-trifluoroethyl)-D-valinamide] were, in that order, at most 10 nM and 10 to 500 nM.
Take `CC(C)[C@H](Nc1cncc(-c2c[nH]c3ncc(OC4CCOCC4)cc23)c1)C(=O)NCC(F)(F)F` [Example 2-9, N~2~-{5-[5-(tetrahydro-2H-pyran-4-yloxy)-1H-pyrrolo[2,3-b]pyridin-3-yl]pyridin-3-yl}-N-(2,2,2-trifluoroethyl)valinamide]: the IC50 in assay [1] is at most 10 nM; in assay [2], 10 to 500 nM.
